Assay results as given in patent US9598440B2, “Inhibitors of IRAK4 activity” (MERCK SHARP & DOHME CORP., priority 2012, dated 2017).

Target: IRAK4 (Homo sapiens (Human), UniProt Q9NWZ3)
Assay: Determination of IRAK4 kinase activity (IMAP fluorescence polarization, phosphorylation of fluorescent peptide substrate)
Type: biochemical
Details: 0.5 nM GST tagged IRAK4, 100 nM peptide substrate RP7030, 100 μM ATP, 30 minutes at 25° C.
Protocol: The kinase activity of IRAK4 is determined by its ability to catalyze the phosphorylation of a fluorescent polypeptide substrate. The extent of phosphorylation is measured using IMAP technology (Molecular Devices) where the phosphorylated fluorescent substrate binds to the large M(III)-based nanoparticles which reduces the rotational speed of the substrate and thus increases its fluorescent polarization (FP).
Procedure: A 20 μl reaction mixture contains 10 mM TriHCl, pH 7.2, 0.5 nM GST tagged IRAK4 (SignalChem), 100 nM fluorescent peptide substrate (RP7030, Molecular Devices), 100 μM ATP, 1 mM DTT, 1 mM MgCl2, and 0.01% Tween 20. The reaction is initiated by the addition of ATP. After incubation for 30 minutes at 25° C., 60 μl of Progressive IMAP Reagent (Molecular Devices) is added to stop the reaction. Change in RP7030's FP is determined by a FP reader (Analyst HT, LJL BioSystems). Analytical LCMS Conditions: • Condition A: Phenomenex Luna C18 (4.6×250 mm), 95:5 to 5:95 water:MeCN (0.05% TFA), over 10 min, hold 6 min. • Condition B: Agilent SBC (3.0×50 mm), solvent A: H20-0.1% TFA; • solvent B: ACN-0.1% TFA; GRADIENT TABLE: 0 min:10% B, 0.3 min: 10% B, 1.5 min: 95% B, 2.70 min: 95% B, 2.76 min: 10% B, stop time 3.60 min.

IRAK4, sequence (Q9NWZ3 whole entry): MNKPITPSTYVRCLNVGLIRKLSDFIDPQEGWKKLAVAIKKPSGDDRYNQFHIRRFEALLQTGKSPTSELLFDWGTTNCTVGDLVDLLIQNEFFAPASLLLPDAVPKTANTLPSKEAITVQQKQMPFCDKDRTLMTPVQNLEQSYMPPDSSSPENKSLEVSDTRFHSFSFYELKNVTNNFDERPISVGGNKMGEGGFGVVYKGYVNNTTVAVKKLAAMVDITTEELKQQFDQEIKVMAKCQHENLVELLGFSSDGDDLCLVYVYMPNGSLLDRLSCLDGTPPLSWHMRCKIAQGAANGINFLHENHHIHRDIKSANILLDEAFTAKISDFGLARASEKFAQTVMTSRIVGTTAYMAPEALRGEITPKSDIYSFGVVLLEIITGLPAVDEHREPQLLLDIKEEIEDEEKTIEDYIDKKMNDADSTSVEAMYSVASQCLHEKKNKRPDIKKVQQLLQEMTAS

| Compound | IC50 [nM] |
| --- | --- |
| CN1CCCC(Nc2ncc(-c3nc4ccccc4s3)c(N[C@@H]3C[C@H](CO)[C@@H](O)[C@H]3O)n2)C1 (mixture of isomers) [Example 32, (1R,2S,3R,5R)-3-((5-(benzo[d]thiazol-2-yl)-2-(((RS)-1-methylpiperidin-3-yl)amino)pyrimidin-4-yl)amino)-5-(hydroxymethyl)cyclopentane-1,2-diol] | 934 |
| OC[C@H]1C[C@@H](Nc2nc(NC3CCCNC3)ncc2-c2nc3ccccc3s2)[C@H](O)[C@@H]1O (mixture of isomers) [Example 47, (1R,2S,3R,5R)-3-((5-(benzo[d]thiazol-2-yl)-2-((RS)-piperidin-3-ylamino)pyrimidin-4-yl)amino)-5-(hydroxymethyl)cyclopentane-1,2-diol] | 3270 |
| OC[C@H]1C[C@@H](Nc2nc(NC3CCOC3)ncc2-c2nc3ccccc3s2)[C@H](O)[C@@H]1O (mixture of isomers) [Example 48, (1R,2S,3R,5R)-3-((5-(benzo[d]thiazol-2-yl)-2-(((RS)-tetrahydrofuran-3-yl)amino)pyrimidin-4-yl)amino)-5-(hydroxymethyl)cyclopentane-1,2-diol] | 1580 |
| OC[C@H]1C[C@@H](Nc2nc(NC3CCCOC3)ncc2-c2nc3ccccc3s2)[C@H](O)[C@@H]1O (mixture of isomers) [Example 49, (1R,2S,3R,5R)-3-((5-(benzo[d]thiazol-2-yl)-2-(((RS)-tetrahydro-2H-pyran-3-yl)amino)pyrimidin-4-yl)amino)-5-(hydroxymethyl)cyclopentane-1,2-diol] | 1470 |
| OC[C@H]1C[C@@H](Nc2nc(NC3CCNC3)ncc2-c2nc3ccccc3s2)[C@H](O)[C@@H]1O (mixture of isomers) [Example 51, (1R,2S,3R,5R)-3-((5-(benzo[d]thiazol-2-yl)-2-((RS)-pyrrolidin-3-ylamino)pyrimidin-4-yl)amino)-5-(hydroxymethyl)cyclopentane-1,2-diol] | 1380 |
| Cc1cc(Nc2ncc(-c3ccc4ccccc4n3)c(N[C@@H]3CC(C(C)(C)O)[C@@H](O)[C@H]3O)n2)cc(C)n1 (stereo in doubt) [Example 111, 6-(((1R,2S,3R,4R)-2,3-dihydroxy-4-(2-hydroxypropan-2-yl)cyclopentyl)amino)-2-((2,6-dimethylpyridin-4-yl)amino)-5-(quinolin-2-yl)pyrimidine] | 0.2 |
| COc1cc(Nc2ncc(-c3ccc4cccc(C)c4n3)c(N[C@@H]3CC(C(C)(C)O)[C@@H](O)[C@H]3O)n2)ccn1 (stereo in doubt) [Example 123, 6-(((1R,2S,3R,4R)-2,3-dihydroxy-4-(2-hydroxypropan-2-yl)cyclopentyl)amino)-2-((2-methoxypyridin-4-yl)amino)-5-(8-methylquinolin-2-yl)pyrimidine] | 712 |
| Cc1cc(Nc2ncc(-c3nc4cnccc4s3)c(N[C@@H]3CC(C(C)(C)O)[C@@H](O)[C@H]3O)n2)cc(C)n1 (stereo in doubt) [Example 137, 6-(((1R,2S,3R,4R)-2,3-dihydroxy-4-(2-hydroxypropan-2-yl)cyclopentyl)amino)-2-((2,6-dimethylpyridin-4-yl)amino)-5-(thiazolo[4,5-c]pyridin-2-yl)pyrimidine] | 0.2 |
| Cc1cc(Nc2ncc(-c3nc4c(C)nccc4s3)c(N[C@@H]3CC(C(C)(C)O)[C@@H](O)[C@H]3O)n2)cc(C)n1 (stereo in doubt) [Example 138, 6-(((1R,2S,3R,4R)-2,3-dihydroxy-4-(2-hydroxypropan-2-yl)cyclopentyl)amino)-2-((2,6-dimethylpyridin-4-yl)amino)-5-(4-methylthiazolo[4,5-c]pyridin-2-yl)pyrimidine] | 0.5 |
| Cc1cc(Nc2cc(N[C@H]3C[C@@H](C(C)(C)O)[C@H](O)[C@@H]3O)c(-c3nc(C)cs3)cn2)cc(C)n1 (stereo in doubt) [Example 162, (1S,2R,3S,5R)-3-((2-((2,6-dimethylpyridin-4-yl)amino)-5-(4-methylthiazol-2-yl)pyridin-4-yl)amino)-5-(2-hydroxypropan-2-yl)cyclopentane-1,2-diol] | 37 |

Further lines, results first:

| IC50 [nM] | Compound |
| --- | --- |
| 4 | COc1cc(Nc2ncc(-c3ccc4ccccc4n3)c(N[C@@H]3CC(C(C)(C)O)[C@@H](O)[C@H]3O)n2)ccn1 (stereo in doubt) [Example 112, 6-(((1R,2S,3R,4R)-2,3-dihydroxy-4-(2-hydroxypropan-2-yl)cyclopentyl)amino)-2-((2-methoxypyridin-4-yl)amino)-5-(quinolin-2-yl)pyrimidine] |
| 36 | CC(C)(O)C1C[C@@H](Nc2nc(Nc3cccc(C#N)c3)ncc2-c2nc3ccccc3s2)[C@H](O)[C@@H]1O (stereo in doubt) [Example 115, 5-(benzo[d]thiazol-2-yl)-2-((3-cyanophenyl)amino)-6-(((1R,2S,3R,4R)-2,3-dihydroxy-4-(2-hydroxypropan-2-yl)cyclopentyl)amino)pyrimidine] |
| 19 | CC(C)Oc1cc(Nc2ncc(-c3nc4ccccc4s3)c(N[C@@H]3CC(C(C)(C)O)[C@@H](O)[C@H]3O)n2)ccn1 (stereo in doubt) [Example 116, 5-(benzo[d]thiazol-2-yl)-6-(((1R,2S,3R,4R)-2,3-dihydroxy-4-(2-hydroxypropan-2-yl)cyclopentyl)amino)-2-((2-isopropoxypyridin-4-yl)amino)pyrimidine] |
| 20 | COc1cccc(Nc2ncc(-c3nc4ccccc4s3)c(N[C@@H]3CC(C(C)(C)O)[C@@H](O)[C@H]3O)n2)c1 (stereo in doubt) [Example 117, 5-(benzo[d]thiazol-2-yl)-6-(((1R,2S,3R,4R)-2,3-dihydroxy-4-(2-hydroxypropan-2-yl)cyclopentyl)amino)-2-((3-methoxyphenyl)amino)pyrimidine] |
| 16 | Cc1cccc(Nc2ncc(-c3nc4ccccc4s3)c(N[C@@H]3CC(C(C)(C)O)[C@@H](O)[C@H]3O)n2)c1 (stereo in doubt) [Example 118, 5-(benzo[d]thiazol-2-yl)-6-(((1R,2S,3R,4R)-2,3-dihydroxy-4-(2-hydroxypropan-2-yl)cyclopentyl)amino)-2-(m-tolylamino)pyrimidine] |
| 16 | CC(C)(O)C1C[C@@H](Nc2nc(Nc3ccccc3)ncc2-c2nc3ccccc3s2)[C@H](O)[C@@H]1O (stereo in doubt) [Example 119, 5-(benzo[d]thiazol-2-yl)-6-(((1R,2S,3R,4R)-2,3-dihydroxy-4-(2-hydroxypropan-2-yl)cyclopentyl)amino)-2-(phenylamino)pyrimidine] |
| 10 | CC(C)(O)C1C[C@@H](Nc2nc(Nc3ccnc(C(F)(F)F)c3)ncc2-c2nc3ccccc3s2)[C@H](O)[C@@H]1O (stereo in doubt) [Example 120, 5-(benzo[d]thiazol-2-yl)-6-(((1R,2S,3R,4R)-2,3-dihydroxy-4-(2-hydroxypropan-2-yl)cyclopentyl)amino)-2-((2-(trifluoromethyl)pyridin-4-yl)amino)pyrimidine] |
| 386 | CC(C)(O)C1C[C@@H](Nc2nc(Nc3cccc(C(F)(F)F)c3)ncc2-c2nc3ccccc3s2)[C@H](O)[C@@H]1O (stereo in doubt) [Example 121, 5-(benzo[d]thiazol-2-yl)-6-(((1R,2S,3R,4R)-2,3-dihydroxy-4-(2-hydroxypropan-2-yl)cyclopentyl)amino)-2-((3-(trifluoromethyl)phenyl)amino)pyrimidine] |
| 163 | CC(C)(O)C1C[C@@H](Nc2nc(Nc3cc(F)cc(F)c3)ncc2-c2nc3ccccc3s2)[C@H](O)[C@@H]1O (stereo in doubt) [Example 122, 5-(benzo[d]thiazol-2-yl)-2-((3,5-difluorophenyl)amino)-6-(((1R,2S,3R,4R)-2,3-dihydroxy-4-(2-hydroxypropan-2-yl)cyclopentyl)amino)pyrimidine] |
| 60 | COc1ccc(Nc2ncc(-c3nc4ccccc4s3)c(N[C@@H]3CC(C(C)(C)O)[C@@H](O)[C@H]3O)n2)c(OC)c1 (stereo in doubt) [Example 125, 5-(benzo[d]thiazol-2-yl)-6-(((1R,2S,3R,4R)-2,3-dihydroxy-4-(2-hydroxypropan-2-yl)cyclopentyl)amino)-2-((2,4-dimethoxyphenyl)amino)pyrimidine] |
| 9 | COc1cc(Nc2ncc(-c3nc4ccccc4s3)c(N[C@@H]3CC(C(C)(C)O)[C@@H](O)[C@H]3O)n2)ccn1 (stereo in doubt) [Example 126, 5-(benzo[d]thiazol-2-yl)-6-(((1R,2S,3R,4R)-2,3-dihydroxy-4-(2-hydroxypropane-2-yl)cyclopentyl)amino)-2-((2-methoxypyridin-4-yl)amino)pyrimidine] |
| 0.7 | COc1cc(Nc2ncc(-c3nc4cnccc4s3)c(N[C@@H]3CC(C(C)(C)O)[C@@H](O)[C@H]3O)n2)ccn1 (stereo in doubt) [Example 136, 6-(((1R,2S,3R,4R)-2,3-dihydroxy-4-(2-hydroxypropan-2-yl)cyclopentyl)amino)-2-((2-methoxypyridin-4-yl)amino)-5-(thiazolo[4,5-c]pyridin-2-yl)pyrimidine] |
